Data from patent US12616695B2, “Use of 5-amino-2,3-dihydro-1,4-phthalazinedione in the treatment of rare chronic inflammatory pulmonary diseases” (Metriopharm AG, priority 2020, dated 2026).
Where two headings read alike, the source gives them in different places.

System: cigarette smoke-induced 3-nitrotyrosine formation in the lung parenchyma
Settings: for 3-nitrotyrosine stained surface area, mean ± SEM: n=5 mice, room air 0.24 ± 0.09, cigarette smoke + diluent 3.07 ± 0.39
Experimental: 5-amino-2,3-dihydro-1,4-phthalazinedione sodium salt Form I was tested in an isolated, ventilated and perfused mouse lung system that was stimulated with cigarette smoke.
The isolated, ventilated and perfused mouse lung system (ILU) is an established model for studying acute effects of various conditions and drugs on lung parenchyma and vasculature. It is mainly used for examining effects of hypoxia and for evaluating the efficacy of potential drugs on the hypoxic pulmonary vasoreaction (cf. Weissmann et al. (2006) Proc Natl Acad Sci USA 103: 19093-19098).
C57BL/6J mice (n=25, 5 per group; male/female, 3-6 months, 20-30 g; Charles River GmbH, Sulzfeld, Germany) were anesthetized with a ketamine (100 mg/kg body weight) and xylazine (20 mg/kg body weight) intraperitoneal injection (Ceva Tiergesundheit GmbH, Dusseldorf, Germany) containing heparin (50 I.E. heparin/g body weight; Ratiopharm GmbH, Ulm, Germany). The lungs and the heart were removed from the chest cavity and placed on the ILU system (see FIGS. 1A and 1B). Lungs were ventilated in an isolated chamber using normoxic gas (21% O2, 5% CO2, 74% N2; 150 breaths per minute at the PEEP (positive end-expiratory pressure) of 3 cm H2O) and perfused with a modified Krebs-Henseleit buffer (120.0 mM NaCl, 4.3 mM KCl, 1.1 mM KH2PO4, 2.4 mM CaCl2, 1.3 mM MgCl2, 13.14 mM glucose, 0.25 mM hydroxyethyl starch 200000/0.5, 25.0 mM NaHCO3 adjusted to a constant pH range of […] L-arginine; Serag-Wissner GmbH & Co. KG, Naila, Germany) at a temperature of 37° C. Lung weight, right and left ventricle pressure, as well as ventilatory pressure were monitored and recorded during the whole experimental procedure. After 5-10 minutes, when the lung was properly flushed and all the parameters were stable, 5-amino-2,3-dihydro-1,4-phthalazinedione sodium salt was applied by adding 150 μl of a stock solution to 15 ml of the circulating perfusion buffer. The substance was applied 10 minutes prior to the first cigarette smoke application. Cigarette smoke was applied via trachea while lung is perfused with the buffer containing 5-amino-2,3-dihydro-1,4-phthalazinedione sodium salt. Cigarette smoke was prepared freshly before each application, by burning one cigarette (research cigarettes 3R4F, University of Kentucky, USA) in one minute using normoxic gas at the flow of 11/min and collected in a 1 I glass bottle containing 5 g silica gel for removing the moist from the cigarette smoke. 50 ml of the cigarette smoke were taken via a syringe and applied to the lung via trachea (FIG. 1A) in deep breaths (periodic inflation for 3-4 s) over a period of 5 min. The application was done manually while carefully monitoring the inspiratory pressure to avoid damage of the lung. The cigarette smoke application was repeated three times with a 1 hour break in-between.
Five treatment groups (n=5, respectively) were investigated: • A: room air exposure • B: cigarette smoke+diluent (buffer solution) • C: cigarette smoke+0.5 mM 5-amino-2,3-dihydro-1,4-phthalazinedione sodium salt • D: cigarette smoke+1 mM 5-amino-2,3-dihydro-1,4-phthalazinedione sodium salt • E: cigarette smoke+2 mM 5-amino-2,3-dihydro-1,4-phthalazinedione sodium salt
5-amino-2,3-dihydro-1,4-phthalazinedione sodium salt Form I was dissolved in water for injection (vehicle) at the required concentrations described above. Stock solutions were prepared in water for injection. Further 1:100 dilutions were made with modified Krebs-Henseleit buffer (see above). Stock solutions were stored at −70° C. in appropriate aliquots. The required amount of stock solution was thawed, and the corresponding working solution was prepared for immediate use.
One hour after the third cigarette smoke application lungs were removed from the system and fixed by inflating with formalin solution (via trachea) at the pressure of 12-15 cm H2O for two hours at room temperature.

Nc1cccc2c(=O)[nH][nH]c(=O)c12.[Na] [5-amino-2,3-dihydro-1,4-phthalazinedione sodium salt]
effect on cigarette smoke induced 3-nitrotyrosine formation (in words) (0.5 mM in perfusion buffer (FIG. 2C)): moderate effect
effect on cigarette smoke induced 3-nitrotyrosine formation (in words) (1 mM in perfusion buffer (FIG. 2D)): almost completely abolished
effect on cigarette smoke induced 3-nitrotyrosine formation (in words) (2 mM in perfusion buffer (FIG. 2E)): almost completely abolished
3-nitrotyrosine stained surface area, mean ± SEM (cigarette smoke + 0.5 mM in perfusion buffer): 2.24 ± 0.28 % area
3-nitrotyrosine stained surface area, mean ± SEM (cigarette smoke + 1 mM in perfusion buffer): 0.72 ± 0.26 % area
3-nitrotyrosine stained surface area, mean ± SEM (cigarette smoke + 2 mM in perfusion buffer): 0.37 ± 0.13 % area
cigarette smoke-induced 3-nitrotyrosine formation in the lung parenchyma, conclusion (in words) (pre-treatment 10 minutes prior to the first cigarette smoke application, ILU model): prevents cigarette smoke-induced 3-nitrotyrosine formation
ROS/RNS levels in cigarette smoke-stimulated mouse lung (in words) (summary over 0.5, 1 and 2 mM): dose-dependent reduction of ROS/RNS levels down to control levels
